The results in this text go back to patent US9062041B2 (Bayer Intellectual Property GmbH, priority 2011, dated 2015).

Holding throughout (type): cell-based
One experiment addresses T1, human PGD receptor (Homo sapiens, UniProt Q13258).
T1 sequence (Q13258 1-359): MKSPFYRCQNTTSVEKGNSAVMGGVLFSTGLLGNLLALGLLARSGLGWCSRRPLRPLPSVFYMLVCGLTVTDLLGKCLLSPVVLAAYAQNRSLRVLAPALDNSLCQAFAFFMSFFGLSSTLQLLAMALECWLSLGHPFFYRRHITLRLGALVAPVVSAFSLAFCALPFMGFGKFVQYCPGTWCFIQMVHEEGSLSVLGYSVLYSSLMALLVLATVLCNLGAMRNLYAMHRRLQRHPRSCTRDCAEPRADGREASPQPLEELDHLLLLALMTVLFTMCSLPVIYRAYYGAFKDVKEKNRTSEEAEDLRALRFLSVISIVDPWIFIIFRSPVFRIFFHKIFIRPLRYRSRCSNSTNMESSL
Description: cAMP antagonism test on the human prostaglandin D receptor (HTRF cAMP detection). Particulars: selectivity towards hDP, IC50 measured by cAMP antagonism test. Summed up: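 Cells pre-mixed with cAMP-d2 were preincubated with compound (0.8 nM–16.5 μM) for 20 min at RT, then stimulated with 3× PGD2 solution (6 nM, in PBS-IBMX) for 30 min at RT. After lysis (20 min), HTRF read at 665/620 nm; antagonism seen as rise in FRET ratio.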
For orientation: In TR-FRET formats the signal depends on donor and acceptor labels being close together.

The target in experiment [1] is EP4 subtype of the human PGE2 receptor (Homo sapiens, UniProt P35408). Description: cAMP antagonism test on the human EP4 receptor (HTRF cAMP detection). Particulars: selectivity towards hEP4, IC50 measured by cAMP antagonism test. Put shortly: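 Cells expressing human EP4 preincubated 20 min at RT with compound (0.8 nM–16.5 μM), then stimulated with PGE2 (0.3 nM in 3× solution, with IBMX) 60 min at RT. After lysis, cAMP measured by HTRF competition (665/620 nm ratio); antagonism seen as rise in FRET signal.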

The target of experiment [2] is EP2 subtype of the human PGE2 receptor (Homo sapiens, UniProt P43116). Description: cAMP antagonism test on the human EP2 receptor (HTRF cAMP detection). Particulars: hEP2 receptor, read-out: Antagonism hEP2 IC50. Put shortly: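 Cells expressing human EP2 preincubated 20 min at RT with compound (0.8 nM–16.5 μM), then stimulated 60 min with PGE2 (3× solution 1.5 nM) in PBS-IBMX. After 20 min lysis, cAMP measured by competitive HTRF with cAMP-d2 and Eu cryptate anti-cAMP antibody (665/620 nm ratio).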
EP2 subtype of the human PGE2 receptor, sequence (P43116 whole entry): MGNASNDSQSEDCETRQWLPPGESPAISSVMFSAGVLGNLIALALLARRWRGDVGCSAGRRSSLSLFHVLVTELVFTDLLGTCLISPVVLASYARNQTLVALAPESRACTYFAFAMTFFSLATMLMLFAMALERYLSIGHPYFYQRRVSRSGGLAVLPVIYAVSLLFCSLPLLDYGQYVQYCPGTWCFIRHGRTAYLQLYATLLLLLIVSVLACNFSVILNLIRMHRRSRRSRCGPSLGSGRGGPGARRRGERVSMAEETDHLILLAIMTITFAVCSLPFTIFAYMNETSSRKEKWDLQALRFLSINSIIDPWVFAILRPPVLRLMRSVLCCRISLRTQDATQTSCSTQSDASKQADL

EP4 subtype of the human PGE2 receptor, sequence (P35408 whole entry): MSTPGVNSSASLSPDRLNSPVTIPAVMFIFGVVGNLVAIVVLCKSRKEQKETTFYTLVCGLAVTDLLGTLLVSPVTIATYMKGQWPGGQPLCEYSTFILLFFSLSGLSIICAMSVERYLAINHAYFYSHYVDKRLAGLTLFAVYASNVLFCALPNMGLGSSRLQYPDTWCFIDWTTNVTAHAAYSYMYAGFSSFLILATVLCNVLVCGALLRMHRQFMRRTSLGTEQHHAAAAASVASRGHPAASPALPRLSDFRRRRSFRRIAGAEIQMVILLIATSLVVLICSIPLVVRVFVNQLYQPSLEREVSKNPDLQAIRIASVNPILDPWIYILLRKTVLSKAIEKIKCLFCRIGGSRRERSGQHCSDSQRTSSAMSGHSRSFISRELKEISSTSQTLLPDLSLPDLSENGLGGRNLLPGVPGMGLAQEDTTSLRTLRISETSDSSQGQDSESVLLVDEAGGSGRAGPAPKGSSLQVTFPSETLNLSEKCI

Usually IC50 stands for the concentration needed to halve the response being measured. Turning to `Cc1c(C(=O)NCC(C)OC2CCC2)ccc2nn(CC3CN(C(=O)c4ccc(Cl)cc4)C3)cc12` (single isomer, unassigned) [Example 156, (R or S)-2-{[1-(4-chlorobenzoyl)azetidin-3-yl]methyl}-N-[2-(cyclobutyloxy)-propyl]-4-methyl-2H-indazol-5-carboxamide], at human PGD receptor, the “Selectivity hEP2/hDP” value was “xx (xx: 10-100)”. Besides, in experiment [1], the “Selectivity hEP2/hEP4” value was “xx (xx: 10-100)”. Moreover, the half-maximal inhibitory concentration (IC50) in experiment [2] was determined as 184 nM.
Regarding `Cc1cc2nn(CC3CCN(C(=O)c4ccc(Cl)cc4)CC3)cc2cc1C(=O)NCCN1CCOCC1` [Example 74, 2-{[1-(4-chlorobenzoyl)piperidin-4-yl]methyl}-6-methyl-N-(2-morpholinoethyl)-2H-indazol-5-carboxamide], the “Selectivity hEP2/hDP” value on human PGD receptor is listed as “xxx (xxx > 100)”. Also, the “Selectivity hEP2/hEP4” value in experiment [1] is reported as “xxx (xxx > 100)”. Further, the IC50 in experiment [2] was found to be 95.4 nM.
Take `COCCNC(=O)c1ccc2nn(CC3CCN(C(=O)c4ccc(Oc5ccc(F)cc5F)cc4)CC3)cc2c1C` [Example 358, 2-({1-[4-(2,4-difluorophenoxy)benzoyl]piperidin-4-yl}methyl)-N-(2-methoxy-ethyl)-4-methyl-2H-indazol-5-carboxamide]: the “Selectivity hEP2/hDP” value at human PGD receptor is given as “xxx (xxx > 100)”. Besides, the “Selectivity hEP2/hEP4” value in experiment [1] is recorded as “xxx (xxx > 100)”. For the same compound, the IC50 in experiment [2] was determined as 8.01 nM.
As for `COCCNC(=O)c1ccc2nn(CC3CCN(C(=O)c4ccc(-c5ccccc5)c(C)c4)CC3)cc2c1C` [Example 394, N-(2-methoxyethyl)-4-methyl-2-({1-[(2-methylbiphenyl-4-yl)carbonyl]piperidin-4-yl}methyl)-2H-indazol-5-carboxamide], the “Selectivity hEP2/hDP” value on human PGD receptor is listed as “xxx (xxx > 100)”. Further, the “Selectivity hEP2/hEP4” value in experiment [1] was “xxx (xxx > 100)”. In addition, the IC50 in experiment [2] was found to be 5.7 nM.
For the compound `Cc1c(C(=O)NCCOCC2CC2)ccc2nn(CC3CCN(C(=O)c4ccc(Oc5ccc(F)cc5)cc4)CC3)cc12` [Example 86, N-[2-(cyclopropyl-methoxy)ethyl]-2-({1-[4-(4-fluorophenoxy)-benzoyl]piperidin-4-yl}methyl)-4-methyl-2H-indazol-5-carboxamide], the “Selectivity hEP2/hDP” value at human PGD receptor is given as “xxx (xxx > 100)”. Also, in experiment [1], the “Selectivity hEP2/hEP4” value is “xxx (xxx > 100)”. In experiment [2], the IC50 worked out at 15.4 nM.
`Cc1c(C(=O)NCC(F)(F)F)ccc2nn(CC3CN(C(=O)c4ccc(Oc5ccc(C(F)(F)F)cc5)cc4)C3)cc12` [Example 164, 4-methyl-N-(2,2,2-trifluoroethyl)-2-[(1-{4-[4-(trifluoromethyl)phenoxy]benzoyl}azetidin-3-yl)methyl]-2H-indazol-5-carboxamide]: the “Selectivity hEP2/hDP” value on human PGD receptor is listed as “xxx (xxx > 100)”. Besides, the “Selectivity hEP2/hEP4” value in experiment [1] is given as “xxx (xxx > 100)”. The IC50 in experiment [2] is 10.9 nM.
`COCCNC(=O)c1ccc2nn(CC3CN(C(=O)c4ccc(Cl)cc4F)C3)cc2c1C` [Example 121, 2-{[1-(4-chloro-2-fluorobenzoyl)azetidin-3-yl]methyl}-N-(2-methoxyethyl)-4-methyl-2H-indazol-5-carboxamide]: on human PGD receptor, the “Selectivity hEP2/hDP” value was “xxx (xxx > 100)”. In addition, the “Selectivity hEP2/hEP4” value in experiment [1] is given as “xxx (xxx > 100)”. Further, in experiment [2], the IC50 is 15.5 nM.
With `COCCNC(=O)c1ccc2nn(CC3CCN(C(=O)c4ccc(C(C)(C)C#N)cc4)CC3)cc2c1C` [Example 341, 2-({1-[4-(1-cyano-1-methylethyl)benzoyl]piperidin-4-yl}methyl)-N-(2-methoxy-ethyl)-4-methyl-2H-indazol-5-carboxamide], the “Selectivity hEP2/hDP” value at human PGD receptor is reported as “xxx (xxx > 100)”. The “Selectivity hEP2/hEP4” value in experiment [1] is recorded as “xxx (xxx > 100)”. Also, the IC50 in experiment [2] came to 55.3 nM.
As to `COCCNC(=O)c1ccc2nn(CC3CCN(C(=O)c4ccc(C(F)(F)F)cc4)CC3)cc2c1C` [Example 23, N-(2-methoxyethyl)-4-methyl-2-({1-[4-(trifluoromethyl)-benzoyl]piperidin-4-yl}methyl)-2H-indazol-5-carboxamide], the “Selectivity hEP2/hDP” value on human PGD receptor is recorded as “xxx (xxx > 100)”. The “Selectivity hEP2/hEP4” value in experiment [1] is listed as “xxx (xxx > 100)”. Besides, the IC50 in experiment [2] amounted to 16.1 nM.
As for `Cc1ccc(C(=O)N2CCC(Cn3cc4c(C)c(C(=O)NCCOCC(F)(F)F)ccc4n3)CC2)cc1` [Example 91, 4-methyl-2-{[1-(4-methylbenzoyl)-piperidin-4-yl]-methyl}-N-[2-(2,2,2-trifluoro-ethoxy)ethyl]-2H-indazol-5-carboxamide], the “Selectivity hEP2/hDP” value on human PGD receptor was “xxx (xxx > 100)”. Moreover, in experiment [1], the “Selectivity hEP2/hEP4” value is recorded as “xxx (xxx > 100)”. In addition, the 50% inhibitory concentration (IC50) in experiment [2] worked out at 20.3 nM.
Turning to `COCCNC(=O)c1ccc2nn(C[C@H]3CCN(C(=O)c4ccc(Cl)cc4)C3)cc2c1C` [Example 222, 2-{[(S)-1-(4-chlorobenzoyl)pyrrolidin-3-yl]methyl}-N-(2-methoxyethyl)-4-methyl-2H-indazol-5-carboxamide], at human PGD receptor, the “Selectivity hEP2/hDP” value was “xxx (xxx > 100)”. In experiment [1], the “Selectivity hEP2/hEP4” value is “xxx (xxx > 100)”. Besides, in experiment [2], the IC50 amounted to 40.9 nM.
As for `COCCNC(=O)c1ccc2nn(CC3CN(C(=O)c4ccc(Oc5ccc(Cl)cc5)cc4)C3)cc2c1C` [Example 166, 2-({1-[4-(4-chlorophenoxy)benzoyl]azetidin-3-yl}methyl)-N-(2-methoxyethyl)-4-methyl-2H-indazol-5-carboxamide], the “Selectivity hEP2/hDP” value on human PGD receptor was “xxx (xxx > 100)”. For the same compound, the “Selectivity hEP2/hEP4” value in experiment [1] is listed as “xxx (xxx > 100)”. The IC50 in experiment [2] was 2.87 nM.
For `Cc1cc2nn(CC3CCN(C(=O)c4ccc(-c5ccc(F)cc5)cc4)CC3)cc2cc1C(=O)NCCN1CCOCC1` [Example 83, 2-({l-[(4′-fluoro-biphenyl-4-yl)-carbonyl]piperidin-4-yl}methyl)-6-methyl-N-(2-morpholino-ethyl)-2H-indazol-5-carboxamide], the “Selectivity hEP2/hDP” value on human PGD receptor was “xxx (xxx > 100)”. The “Selectivity hEP2/hEP4” value in experiment [1] was “xxx (xxx > 100)”. Further, in experiment [2], the IC50 was found to be 32.6 nM.
Turning to `Cc1c(C(=O)NCC(F)(F)F)ccc2nn(CC3CCN(C(=O)c4nc5ccccc5s4)CC3)cc12` [Example 302, 2-{[1-(benzothiazol-2-ylcarbonyl)piperidin-4-yl]methyl}-4-methyl-N-(2,2,2-trifluoroethyl)-2H-indazol-5-carboxamide], on human PGD receptor, the “Selectivity hEP2/hDP” value is “xxx (xxx > 100)”. In addition, in experiment [1], the “Selectivity hEP2/hEP4” value is recorded as “xxx (xxx > 100)”. In experiment [2], the IC50 turned out to be 131 nM.
For `Cc1c(C(=O)NCC(C)C)ccc2nn(CC3CCN(C(=O)c4ccc(Cl)cc4)CC3)cc12` [Example 243, 2-{[1-(4-chlorobenzoyl)piperidin-4-yl]methyl}-N-isobutyl-4-methyl-2H-indazol-5-carboxamide], the “Selectivity hEP2/hDP” value at human PGD receptor is recorded as “xx (xx: 10-100)”. In addition, the “Selectivity hEP2/hEP4” value in experiment [1] is given as “xx (xx: 10-100)”. Also, the half-maximal inhibitory concentration (IC50) in experiment [2] stood at 335 nM.
Take `COCCNC(=O)c1ccc2nn(CC3CCN(C(=O)c4ccc(Oc5ccc(OC)cc5)cc4)CC3)cc2c1C` [Example 18, N-(2-methoxyethyl)-2-({1-[4-(4-methoxy-phenoxy)benzoyl]-piperidin-4-yl}-methyl)-4-methyl-2H-indazol-5-carboxamide]: the “Selectivity hEP2/hDP” value on human PGD receptor is “xxx (xxx > 100)”. Further, the “Selectivity hEP2/hEP4” value in experiment [1] is on record as “xxx (xxx > 100)”. In addition, in experiment [2], the IC50 stood at 7.66 nM.
Regarding `Cc1cc2nn(CC3CN(C(=O)c4ccc(Cl)cc4)C3)cc2cc1C(=O)NCCOC(F)(F)F` [Example 197, 2-{[1-(4-chlorobenzoyl)azetidin-3-yl]methyl}-6-methyl-N-[2-(trifluoromethoxy)ethyl]-2H-indazol-5-carboxamide], on human PGD receptor, the “Selectivity hEP2/hDP” value is given as “xxx (xxx > 100)”. In addition, in experiment [1], the “Selectivity hEP2/hEP4” value is reported as “xxx (xxx > 100)”. In addition, in experiment [2], the half-maximal inhibitory concentration (IC50) came to 63.2 nM.
Regarding `COc1c(C(=O)NCCN2CCC(F)(F)C2)ccc2nn(CC3CN(C(=O)c4ccc(Cl)cc4)C3)cc12` [Example 260, 2-{[1-(4-chlorobenzoyl)azetidin-3-yl]methyl}-N-[2-(3,3-difluoropyrrolidin-1-yl)ethyl]-4-methoxy-2H-indazol-5-carboxamide], at human PGD receptor, the “Selectivity hEP2/hDP” value is reported as “xxx (xxx > 100)”. In addition, in experiment [1], the “Selectivity hEP2/hEP4” value is reported as “xxx (xxx > 100)”. In addition, in experiment [2], the IC50 is 8.02 nM.
For `COCCNC(=O)c1ccc2nn(CC3CN(C(=O)c4cc5ccc(OC)cc5n4C)C3)cc2c1C` [Example 173, N-(2-methoxyethyl)-2-({1-[(6-methoxy-1-methyl-1H-indol-2-yl)carbonyl]azetidin-3-yl}methyl)-4-methyl-2H-indazol-5-carboxamide], the “Selectivity hEP2/hDP” value at human PGD receptor was “xxx (xxx > 100)”. For the same compound, the “Selectivity hEP2/hEP4” value in experiment [1] is reported as “xxx (xxx > 100)”. The IC50 in experiment [2] was found to be 2.71 nM.
